Data as given in ChEMBL document CHEMBL4177534, “Discovery and evaluation of 1H-pyrrolo[2,3-b]pyridine based selective and reversible small molecule BTK inhibitors for the treatment of rheumatoid arthritis” (Bioorg Med Chem Lett, 2017).
In brackets after ≈: the same amount, converted by molar mass.

Assays:
[1] = molecular target: Mast/stem cell growth factor receptor Kit (Homo sapiens) (UniProt P10721); test: Inhibition of recombinant human N-terminal GST-tagged c-KIT (544 to end residues) expressed in baculovirus infected Sf9 cells assessed as change in enzyme activity at 1 uM in presence of 2 uM ATP relative to control; set-up: scale not given: the % may be the effect or the level left
[2] = molecular target: Tyrosine-protein kinase TXK (Homo sapiens) (UniProt P42681); test: Inhibition of recombinant N-terminal GST-tagged TXK (unknown origin) expressed in baculovirus infected Sf9 cells assessed as change in enzyme activity at 1 uM in presence of 2 uM ATP relative to control; set-up: scale not given: the % may be the effect or the level left
[3] = molecular target: Cytoplasmic tyrosine-protein kinase BMX (Homo sapiens) (UniProt P51813); test: Inhibition of recombinant full length N-terminal GST-tagged BMX (unknown origin) expressed in baculovirus infected Sf9 cells assessed as change in enzyme activity at 1 uM in presence of 2 uM ATP relative to control; set-up: scale not given: the % may be the effect or the level left
[4] = Clearance in mouse at 3 mg/kg, iv; assay type: ADME, organism-based; conditions: in vivo
[5] = molecular target: cAMP-dependent protein kinase catalytic subunit alpha (Homo sapiens) (UniProt P17612); test: Inhibition of recombinant human full length N-terminal GST-tagged PKACalpha expressed in baculovirus infected Sf9 cells assessed as change in enzyme activity at 1 uM in presence of 1 uM ATP relative to control; set-up: scale not given: the % may be the effect or the level left
[6] = Metabolic stability in mouse liver microsomes assessed as metabolism rate; assay type: ADME, microsome
[7] = Half life in mouse at 3 mg/kg, iv; assay type: ADME, organism-based; conditions: in vivo
[8] = Oral bioavailability in mouse at 10 mg/kg; assay type: ADME, organism-based; conditions: in vivo
[9] = molecular target: Serine/threonine-protein kinase pim-2 (Homo sapiens) (UniProt Q9P1W9); test: Inhibition of recombinant human full length N-terminal GST-tagged PIM2 expressed in baculovirus infected Sf9 cells assessed as change in enzyme activity at 1 uM in presence of 1 uM ATP relative to control; set-up: scale not given: the % may be the effect or the level left
[10] = molecular target: Mitogen-activated protein kinase kinase kinase 9 (Homo sapiens) (UniProt P80192); test: Inhibition of recombinant human N-terminal GST-tagged MLK1 (1 to 433 residues) expressed in baculovirus infected Sf9 cells assessed as change in enzyme activity at 1 uM in presence of 2 uM ATP relative to control; set-up: scale not given: the % may be the effect or the level left
[11] = molecular target: RAC-alpha serine/threonine-protein kinase (Homo sapiens) (UniProt P31749); test: Inhibition of recombinant human full length N-terminal GST-tagged AKT1 expressed in baculovirus infected Sf9 cells assessed as change in enzyme activity at 1 uM in presence of 2 uM ATP relative to control; set-up: scale not given: the % may be the effect or the level left
[12] = molecular target: Glycogen synthase kinase-3 beta (Homo sapiens) (UniProt P49841); test: Inhibition of recombinant human full length N-terminal GST/His tagged GSK3beta expressed in baculovirus infected Sf9 cells assessed as change in enzyme activity at 1 uM in presence of 1 uM ATP relative to control; set-up: scale not given: the % may be the effect or the level left
[13] = molecular target: Tyrosine-protein kinase ZAP-70 (Homo sapiens) (UniProt P43403); test: Inhibition of recombinant human full length N-terminal GST-tagged ZAP70 expressed in baculovirus infected Sf9 cells assessed as change in enzyme activity at 1 uM in presence of 2 uM ATP relative to control; set-up: scale not given: the % may be the effect or the level left
[14] = molecular target: Calcium/calmodulin-dependent protein kinase type IV (Homo sapiens) (UniProt Q16566); test: Inhibition of recombinant human full length N-terminal GST-tagged CAMK4 expressed in baculovirus infected Sf9 cells assessed as change in enzyme activity at 1 uM in presence of 2 uM ATP relative to control; set-up: scale not given: the % may be the effect or the level left
[15] = molecular target: Cytoplasmic tyrosine-protein kinase BMX (Homo sapiens, UniProt P51813); test: Inhibition of human BMX
[16] = Equilibrium aqueous solubility of the compound at pH 4; assay type: physicochemical
[17] = molecular target: Proto-oncogene tyrosine-protein kinase Src (Homo sapiens) (UniProt P12931); test: Inhibition of SRC (unknown origin) assessed as change in enzyme activity in presence of 1 uM ATP relative to control; set-up: scale not given: the % may be the effect or the level left
[18] = molecular target: Death-associated protein kinase 1 (Homo sapiens) (UniProt P53355); test: Inhibition of recombinant human N-terminal GST-tagged DAPK1 (1 to363 residues) expressed in baculovirus infected Sf9 cells assessed as change in enzyme activity at 1 uM in presence of 1 uM ATP relative to control; set-up: scale not given: the % may be the effect or the level left
[19] = molecular target: Tyrosine-protein kinase BTK (Mus musculus, UniProt P35991); test: Inhibition of mouse BTK assessed as decrease in anti-mouse IgD antibody stimulated BCR mediated CD69 upregulation in whole blood preincubated for 1 hr followed by antibody challenge after 4 hrs by flow cytometry
[20] = molecular target: Tyrosine-protein kinase BTK (Homo sapiens, UniProt Q06187); test: Inhibition of human BTK assessed as decrease in […] antibody stimulated BCR mediated CD69 upregulation in whole blood preincubated for 1 hr followed by antibody challenge after 4 hrs by flow cytometry
[21] = Equilibrium aqueous solubility of the compound at pH 7.4; assay type: physicochemical
[22] = tested on: Mus musculus; test: Antiarthritic activity in DBA/1J mouse type-2 collagen-induced arthritis model assessed as reduction in joint histological score immunized with type-2 collagen on day 1 and day 21 followed by LPS challenge on day 28 subsequent compound administration po bid by hematoxylin and eosin staining based assay; assay type: functional, organism-based
[23] = molecular target: Serine/threonine-protein kinase B-raf (Homo sapiens) (UniProt P15056); test: Inhibition of recombinant human full length N-terminal GST-tagged BRAF expressed in baculovirus infected Sf9 cells assessed as change in enzyme activity at 1 uM in presence of 1 uM ATP relative to control; set-up: scale not given: the % may be the effect or the level left
[24] = molecular target: Serine/threonine-protein kinase 4 (Homo sapiens) (UniProt Q13043); test: Inhibition of recombinant human full length N-terminal GST-tagged MST1 expressed in baculovirus infected Sf9 cells assessed as change in enzyme activity at 1 uM in presence of 1 uM ATP relative to control; set-up: scale not given: the % may be the effect or the level left
[25] = molecular target: Serine/threonine-protein kinase VRK1 (Homo sapiens) (UniProt Q99986); test: Inhibition of recombinant human full length N-terminal GST-tagged VRK1 expressed in baculovirus infected Sf9 cells assessed as change in enzyme activity at 1 uM in presence of 2 uM ATP relative to control; set-up: scale not given: the % may be the effect or the level left
[26] = molecular target: Tyrosine-protein kinase JAK2 (Homo sapiens, UniProt O60674); test: Inhibition of JAK2 (unknown origin)
[27] = tested on: Mus musculus; test: Ex-vivo inhibition of BTK in C57BL/6J mouse assessed as anti-mouse IgD antibody stimulated BCR mediated CD69 level in whole blood isolated from 30 mg/kg, po bid treated mouse measured after 6 hrs post first dose by flow cytometry relative to control; assay type: functional; set-up: scale not given: the % may be the effect or the level left
[28] = Equilibrium aqueous solubility of the compound at pH 2.1; assay type: physicochemical
[29] = molecular target: Tyrosine-protein kinase Lyn (Homo sapiens) (UniProt P07948); test: Inhibition of recombinant human full length N-terminal GST-tagged LYN A expressed in baculovirus infected Sf9 cells assessed as change in enzyme activity at 1 uM in presence of 1 uM ATP relative to control; set-up: scale not given: the % may be the effect or the level left
[30] = molecular target: Fibroblast growth factor receptor 4 (Homo sapiens) (UniProt P22455); test: Inhibition of recombinant human N-terminal GST-tagged FGFR4 (460 to end) residues expressed in baculovirus infected Sf9 cells assessed as change in enzyme activity at 1 uM in presence of 1 uM ATP relative to control; set-up: scale not given: the % may be the effect or the level left

Mitogen-activated protein kinase kinase kinase 9 (Homo sapiens), sequence (P80192 whole entry, looked up, the tested form may be a part): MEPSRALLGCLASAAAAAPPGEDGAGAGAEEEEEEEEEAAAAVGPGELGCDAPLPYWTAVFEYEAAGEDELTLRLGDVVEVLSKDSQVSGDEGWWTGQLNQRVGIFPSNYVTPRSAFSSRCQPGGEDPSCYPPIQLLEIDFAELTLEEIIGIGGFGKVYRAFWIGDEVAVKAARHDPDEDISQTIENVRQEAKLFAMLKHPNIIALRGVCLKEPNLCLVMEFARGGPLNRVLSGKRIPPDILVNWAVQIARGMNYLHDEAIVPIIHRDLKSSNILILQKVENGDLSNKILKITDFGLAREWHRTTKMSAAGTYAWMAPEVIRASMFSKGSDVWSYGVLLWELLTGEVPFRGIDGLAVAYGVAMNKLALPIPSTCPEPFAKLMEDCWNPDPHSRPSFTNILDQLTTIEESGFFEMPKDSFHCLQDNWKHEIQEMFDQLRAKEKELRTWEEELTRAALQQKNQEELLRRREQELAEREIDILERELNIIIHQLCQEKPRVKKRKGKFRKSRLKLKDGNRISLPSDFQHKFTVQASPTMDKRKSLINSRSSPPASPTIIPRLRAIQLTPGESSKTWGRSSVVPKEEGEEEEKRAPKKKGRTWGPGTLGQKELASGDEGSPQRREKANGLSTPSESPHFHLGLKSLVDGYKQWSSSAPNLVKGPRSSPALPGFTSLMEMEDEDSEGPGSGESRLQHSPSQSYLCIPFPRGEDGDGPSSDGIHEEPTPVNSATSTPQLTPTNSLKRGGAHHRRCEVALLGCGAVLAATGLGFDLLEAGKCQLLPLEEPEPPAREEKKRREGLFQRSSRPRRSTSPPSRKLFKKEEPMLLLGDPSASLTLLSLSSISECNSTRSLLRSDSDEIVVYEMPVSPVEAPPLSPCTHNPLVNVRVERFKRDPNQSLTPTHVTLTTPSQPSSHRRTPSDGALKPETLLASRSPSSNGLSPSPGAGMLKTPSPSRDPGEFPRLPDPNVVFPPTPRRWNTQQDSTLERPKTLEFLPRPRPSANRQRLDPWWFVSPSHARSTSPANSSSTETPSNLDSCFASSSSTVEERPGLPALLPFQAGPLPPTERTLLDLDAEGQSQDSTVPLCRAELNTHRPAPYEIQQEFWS
Serine/threonine-protein kinase VRK1 (Homo sapiens), sequence (Q99986 whole entry): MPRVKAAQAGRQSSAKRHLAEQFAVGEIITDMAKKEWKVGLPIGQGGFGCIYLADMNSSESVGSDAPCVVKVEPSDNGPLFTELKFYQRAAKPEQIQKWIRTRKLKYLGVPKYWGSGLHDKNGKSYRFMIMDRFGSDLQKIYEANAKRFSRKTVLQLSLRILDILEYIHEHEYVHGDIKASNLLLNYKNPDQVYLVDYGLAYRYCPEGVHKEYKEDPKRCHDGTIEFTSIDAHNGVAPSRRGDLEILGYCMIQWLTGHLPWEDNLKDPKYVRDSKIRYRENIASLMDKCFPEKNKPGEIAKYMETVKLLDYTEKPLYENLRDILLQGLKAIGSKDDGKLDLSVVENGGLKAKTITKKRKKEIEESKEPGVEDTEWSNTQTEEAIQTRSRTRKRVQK
Serine/threonine-protein kinase B-raf (Homo sapiens), sequence (P15056 whole entry): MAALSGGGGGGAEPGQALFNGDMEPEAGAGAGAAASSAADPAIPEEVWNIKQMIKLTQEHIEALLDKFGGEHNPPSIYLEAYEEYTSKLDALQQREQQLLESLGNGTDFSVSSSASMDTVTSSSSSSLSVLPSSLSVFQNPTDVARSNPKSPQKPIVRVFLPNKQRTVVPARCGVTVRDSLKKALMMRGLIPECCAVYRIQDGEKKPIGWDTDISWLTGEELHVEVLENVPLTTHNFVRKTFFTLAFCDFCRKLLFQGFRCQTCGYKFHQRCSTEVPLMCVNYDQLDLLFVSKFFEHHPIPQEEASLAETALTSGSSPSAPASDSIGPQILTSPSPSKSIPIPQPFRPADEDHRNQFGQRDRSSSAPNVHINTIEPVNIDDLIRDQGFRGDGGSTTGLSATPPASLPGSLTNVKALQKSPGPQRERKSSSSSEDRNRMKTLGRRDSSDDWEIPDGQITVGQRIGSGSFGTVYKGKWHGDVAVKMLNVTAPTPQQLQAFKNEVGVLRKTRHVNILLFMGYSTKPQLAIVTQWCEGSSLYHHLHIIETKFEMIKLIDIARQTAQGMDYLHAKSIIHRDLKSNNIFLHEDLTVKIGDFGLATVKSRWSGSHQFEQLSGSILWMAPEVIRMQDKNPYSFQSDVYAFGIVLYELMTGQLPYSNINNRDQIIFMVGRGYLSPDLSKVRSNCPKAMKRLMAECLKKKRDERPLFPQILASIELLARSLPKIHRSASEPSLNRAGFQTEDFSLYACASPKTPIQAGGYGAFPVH
Calcium/calmodulin-dependent protein kinase type IV (Homo sapiens), sequence (Q16566 whole entry): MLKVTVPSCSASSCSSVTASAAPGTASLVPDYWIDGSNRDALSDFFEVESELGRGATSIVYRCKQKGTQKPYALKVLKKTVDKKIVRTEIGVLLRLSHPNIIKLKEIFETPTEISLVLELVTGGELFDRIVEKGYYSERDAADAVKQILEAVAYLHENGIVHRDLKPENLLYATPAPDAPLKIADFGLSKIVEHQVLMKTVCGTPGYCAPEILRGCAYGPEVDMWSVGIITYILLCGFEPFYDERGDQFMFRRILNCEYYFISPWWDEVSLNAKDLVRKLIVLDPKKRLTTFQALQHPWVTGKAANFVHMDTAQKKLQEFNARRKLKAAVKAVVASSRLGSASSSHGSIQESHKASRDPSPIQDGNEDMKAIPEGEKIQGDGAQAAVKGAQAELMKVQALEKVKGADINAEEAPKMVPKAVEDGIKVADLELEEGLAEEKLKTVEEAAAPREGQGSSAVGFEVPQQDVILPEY
Tyrosine-protein kinase ZAP-70 (Homo sapiens), sequence (P43403 whole entry): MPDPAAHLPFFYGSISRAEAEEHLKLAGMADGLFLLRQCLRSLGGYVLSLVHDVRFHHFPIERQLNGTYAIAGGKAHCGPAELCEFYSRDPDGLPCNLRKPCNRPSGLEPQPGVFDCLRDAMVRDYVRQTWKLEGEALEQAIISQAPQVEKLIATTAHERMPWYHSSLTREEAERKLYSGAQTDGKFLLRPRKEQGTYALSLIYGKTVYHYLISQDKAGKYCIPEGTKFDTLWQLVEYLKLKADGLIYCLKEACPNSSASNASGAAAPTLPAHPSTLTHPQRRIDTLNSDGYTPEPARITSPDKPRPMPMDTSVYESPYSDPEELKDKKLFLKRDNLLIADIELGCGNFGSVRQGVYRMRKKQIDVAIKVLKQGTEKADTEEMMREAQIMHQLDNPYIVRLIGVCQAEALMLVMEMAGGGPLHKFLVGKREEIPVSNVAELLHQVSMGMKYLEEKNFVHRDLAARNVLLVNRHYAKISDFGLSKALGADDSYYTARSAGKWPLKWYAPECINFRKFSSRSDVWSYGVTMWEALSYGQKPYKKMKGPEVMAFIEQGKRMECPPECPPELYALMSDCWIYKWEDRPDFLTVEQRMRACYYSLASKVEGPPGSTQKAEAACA
RAC-alpha serine/threonine-protein kinase (Homo sapiens), sequence (P31749 whole entry): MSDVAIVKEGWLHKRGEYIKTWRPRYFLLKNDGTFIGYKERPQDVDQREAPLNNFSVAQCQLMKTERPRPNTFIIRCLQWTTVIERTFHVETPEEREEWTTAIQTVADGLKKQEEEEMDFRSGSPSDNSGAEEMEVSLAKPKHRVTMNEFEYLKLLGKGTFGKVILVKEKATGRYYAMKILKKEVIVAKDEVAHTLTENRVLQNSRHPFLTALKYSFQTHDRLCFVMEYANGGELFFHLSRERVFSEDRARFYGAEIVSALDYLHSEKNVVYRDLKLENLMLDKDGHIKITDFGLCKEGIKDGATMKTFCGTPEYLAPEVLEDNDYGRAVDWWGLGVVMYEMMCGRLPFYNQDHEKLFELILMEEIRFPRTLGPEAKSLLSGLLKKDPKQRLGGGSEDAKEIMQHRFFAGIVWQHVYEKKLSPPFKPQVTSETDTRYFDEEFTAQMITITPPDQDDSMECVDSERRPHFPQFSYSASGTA
Serine/threonine-protein kinase pim-2 (Homo sapiens), sequence (Q9P1W9 whole entry, looked up, the tested form may be a part): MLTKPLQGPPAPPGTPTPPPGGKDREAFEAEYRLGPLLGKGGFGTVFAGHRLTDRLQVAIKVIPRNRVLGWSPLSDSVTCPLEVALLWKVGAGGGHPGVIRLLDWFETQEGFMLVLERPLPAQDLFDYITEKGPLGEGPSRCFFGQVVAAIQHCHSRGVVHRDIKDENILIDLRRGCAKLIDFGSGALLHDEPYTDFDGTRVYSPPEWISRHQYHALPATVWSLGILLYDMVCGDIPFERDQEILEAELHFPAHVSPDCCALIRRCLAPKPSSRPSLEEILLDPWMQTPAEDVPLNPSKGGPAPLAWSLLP
Tyrosine-protein kinase TXK (Homo sapiens), sequence (P42681 whole entry): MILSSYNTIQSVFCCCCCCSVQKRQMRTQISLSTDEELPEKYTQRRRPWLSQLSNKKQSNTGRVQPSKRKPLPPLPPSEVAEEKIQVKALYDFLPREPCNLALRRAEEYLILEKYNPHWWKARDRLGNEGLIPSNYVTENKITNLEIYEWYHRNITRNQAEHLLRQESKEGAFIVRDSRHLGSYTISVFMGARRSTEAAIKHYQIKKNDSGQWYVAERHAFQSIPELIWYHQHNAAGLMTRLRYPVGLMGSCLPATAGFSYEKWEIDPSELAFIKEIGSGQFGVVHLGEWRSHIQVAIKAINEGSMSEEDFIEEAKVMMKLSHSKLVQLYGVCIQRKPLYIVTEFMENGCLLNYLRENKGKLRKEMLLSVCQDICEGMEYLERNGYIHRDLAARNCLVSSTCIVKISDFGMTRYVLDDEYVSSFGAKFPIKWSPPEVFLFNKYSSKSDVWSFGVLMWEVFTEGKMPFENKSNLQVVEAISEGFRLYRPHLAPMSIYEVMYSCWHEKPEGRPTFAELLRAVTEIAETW

SMILES | Activity [1] | Activity [2] | Activity [3] | clearance [4] | Activity [5] | Drug metabolism [6] | half-life [7] | bioavailability [8] | Activity [9] | Activity [10] | Activity [11] | Activity [12] | Activity [13] | Activity [14] | IC50 [15] | solubility thermodynamic [16] | Activity [17] | Activity [18] | IC50 [19] | IC50 [20] | other results
CCN1CCN(Cc2ccc(-c3cc4c(-c5cccc(N6CCOc7cc(C8CC8)cc(F)c7C6=O)c5CO)ccnc4[nH]3)nc2)CC1 | -1% | -2% | -49% | 0.276 L/h/kg | -2% | < 0.04 nmol/min/mg | 5.6 h | 51% | 0% | -6% | -15% | 2% | 1% | -5% | 1.55 µM | > 2000 µM | -33% | 2% | 0.159 µM | 0.0835 µM | solubility thermodynamic [21]: 15 µM (≈ 9.7 µg/mL); Activity [22]: Dose-dependent effect; Activity [23]: 1%; Activity [24]: -3%; Activity [25]: 1%; IC50 [26]: > 10 µM; Activity [27]: 81%; solubility thermodynamic [28]: > 2000 µM; Activity [29]: -12%; Activity [30]: 0%
O=C1c2c(F)cc(C3CC3)cc2OCCN1c1cccc(-c2ccnc3[nH]c(C4=CCN(C5COC5)CC4)cc23)c1CO | 0% | 1% | -10% | 0.33 L/h/kg | 0% | < 0.04 nmol/min/mg | 1.1 h | 49% | 1% | 2% | -3% | -2% | -1% | 1% | 4.68 µM | > 2000 µM | -26% | -1% | 0.364 µM | 0.261 µM | solubility thermodynamic [21]: 31 µM (≈ 18 µg/mL); Activity [22]: Dose-dependent effect; Activity [23]: -6%; Activity [24]: 5%; Activity [25]: -8%; IC50 [26]: > 10 µM; Activity [27]: 56%; solubility thermodynamic [28]: > 2000 µM; Activity [29]: -2%; Activity [30]: 1%
